According to patent US20240166612A1, “ARYLTHIOETHER ACETAMIDE AND RELATED COMPOUNDS AND THEIR USE IN TREATING MEDICAL CONDITIONS” (X-Biotix Therapeutics, Inc., priority 2021, published 2024):
In brackets after ≈: the same amount, converted by molar mass.

Experiments:
[1] = test system: Wild-type P. aeruginosa PAO1; assay: Broth microdilution MIC, wild-type P. aeruginosa PAO1; assay type: cell-based; conditions: Pseudomonas aeruginosa; wild-type P. aeruginosa PAO1, 37° C., 18 h; read-out: PAO1 WT MIC
Procedure: (§1) Exemplary compounds from the above Examples were tested to determine their minimum inhibitory concentration (MIC) for exemplary strains of Escherichia and Pseudomonas bacteria using broth microdilution methods. Assay procedures and results are described below.
(§2) Broth microdilution assays were conducted according to Clinical and Laboratory Standards Institute guidelines (CLSI, M07-A^11: Clinical and Laboratory Standards Institute. Methods for Dilution Antimicrobial Susceptibility Tests for Bacteria that Grow Aerobically; Approved Standard-11th Edition. Wayne, PA: CLSI, 2018). Briefly, bacterial suspensions were adjusted to a density equivalent to a 0.5 McFarland standard and diluted in sterile, cation-adjusted Mueller-Hinton broth (Beckton Dickinson) to yield a final inoculum between 2×10^5 and 8×10^5 colony-forming units (CFU)/mL. An inoculum volume of 98 μL was added to wells containing 2 μL of 2-fold serial dilutions of drug (prepared in DMSO). All inoculated microdilution trays were incubated in ambient air at 37° C. for 18 h. […] Performance of the assay was monitored by the use of laboratory quality-control strains (S. aureus ATCC 29213 and P. aeruginosa ATCC 27853) and levofloxacin, a compound with a defined MIC spectrum, in accordance with CLSI guidelines (CLSI, M100Ed29: Clinical and Laboratory Standards Institute. Performance Standards for Antimicrobial Susceptibility Testing, 29th Edition. Wayne, PA: CLSI, 2018).
(§3) Multiple enterobacteriaceae strains were tested, including both wild-type strains and multi-drug resistance pump deficient mutants. Specific strains tested included the following: • Wild-type P. aeruginosa PAO1, • P. aeruginosa PAO1 ΔmexABoprM—Disabled multi-drug efflux system Δ(MexAB-OprM), • P. aeruginosa PAO397—PAO1Δ(mexAB-oprM) Δ(mexCD-oprJ) Δ(mexEF-oprN) Δ(mexJK) Δ(mexXY) ΔopmH, • P. aeruginosa LESB58—Clinical isolate; colistin-resistant, isolated in the United Kingdom in 1988 from a patient with cystic fibrosis • E. coli JW0452-3 (BW25113 JacrA::kan)—Disabled multi-drug efflux system (AcrAB-TolC).
(§4) Experimental results are provided in Table 11, which provides MIC values for wild-type P. aeruginosa PAO1 (“PAO1 WT MIC”), P. aeruginosa PAO ΔmexABoprM (“PAO1 KO MIC”), P. aeruginosa PAO397 (“PAO397 KO MIC”), P. aeruginosa LESB58 (“LESB58”), and E. coli JW0452-3 (BW25113 JacrA::kan) (“E. coli KO MIC”).

P. aeruginosa LESB58 = assay: Broth microdilution MIC, P. aeruginosa LESB58; assay type: cell-based; conditions: Pseudomonas aeruginosa; P. aeruginosa LESB58 clinical isolate, colistin-resistant, 37° C., 18 h
Procedure: as §1, §2, §3, §4

P. aeruginosa PAO397 = assay: Broth microdilution MIC, P. aeruginosa PAO397; assay type: cell-based; conditions: Pseudomonas aeruginosa, PAO397, 18 h, read-out: PAO397 KO MIC
Procedure: as §1, §2, §3, §4

[2] = molecular target: T1, recombinant LpxA enzyme (P. aeruginosa) (Pseudomonas aeruginosa, UniProt Q9X6P4); assay: LpxA in vitro substrate acylation assay with RapidFire MS analysis (P. aeruginosa); assay type: biochemical; conditions: P. aeruginosa enzyme 0.5 nM, PaACP-C10, 30 min
T1 sequence (Q9X6P4 1-258): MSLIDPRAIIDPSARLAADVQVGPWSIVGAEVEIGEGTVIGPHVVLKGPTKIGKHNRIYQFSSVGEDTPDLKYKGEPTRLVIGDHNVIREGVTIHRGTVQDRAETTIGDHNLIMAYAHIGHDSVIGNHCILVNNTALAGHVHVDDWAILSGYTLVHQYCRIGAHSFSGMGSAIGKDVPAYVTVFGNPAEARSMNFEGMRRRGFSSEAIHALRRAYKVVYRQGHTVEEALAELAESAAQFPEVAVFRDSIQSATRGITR
Procedure: Exemplary compounds from the above Examples were tested for ability to inhibit LpxA activity using an in vitro substrate acylation assay with RapidFire™ MS analysis. Assay procedures and results are described below.
Reactions were carried out in a final volume of 30 μL with 25 mM HEPES (pH 7.3), 150 mM NaCl, 2 mM DTT, 0.01% BSA, 5 μM UDP-GlcNac, recombinant LpxA enzyme (0.5 nM P. aeruginosa or 1.0 nM E. coli, both produced at Evotec), 0.5 μM acyl-transfer reagent (decanoyl P. aeruginosa acyl-carrier protein [PaACP-C10] or myristoyl E. coli acyl-carrier protein [EcACP-C1-4], both produced at Evotec), and 1% DMSO containing test compound. After 30 min incubation at room temperature, reactions were stopped by addition of 30 μL of 10% TCA in water.
Samples were centrifuged (4350 rpm, 4° C., 5 min), and then subjected to RapidFire™ MS analysis on an Agilent RapidFire 300 coupled to an Agilent 6460 triple-quadrupole mass spectrometer. Analytes were retained on a C4 (type A) cartridge using the following solvents and flow rates: • Pump 1—H2O with 5 mM NH4OAc at 2.0 mL/min, • Pump 2—MeOH/H2O (90/10) at 1.5 mL/min, • Pump 3—MeOH/H2O (90/10) at 0.5 mL/min, and • Pump 4—ACN (organic)/H2O (aqueous). Substrate and product of the reaction were detected in negative mode ESI-MS/MS by MRM (multiple reaction monitoring) of transitions 606.0/385.0 (UDP-GlcNAc substrate) and 776.2/385.0 (UDP-3-O—(R-3-hydroxydecanoyl)-GlcNAc product, for P. aeruginosa LpxA assay) or 832.2/385.0 (UDP-3-O—(R-3-hydroxymyristoyl)-GlcNAc product, for E. coli LpxA assay).
For IC50 determinations, peak areas of the substrate and product were compared to compute the proportion of product formed by the LpxA enzyme at each compound concentration.

| SMILES | MIC [1] | MIC (P. aeruginosa LESB58) | MIC (P. aeruginosa PAO397) | IC50 [2] |
| --- | --- | --- | --- | --- |
| CCc1c(F)cc(F)cc1OC(C)C(=O)N(Cc1nnc(N)o1)Cc1ccc(C#N)cc1F (single isomer, unassigned) [Compound No. 100] | 1 to 16 µg/mL (≈ 2.18 to 34.8 µM) | 1 to 16 µg/mL (≈ 2.18 to 34.8 µM) |  |  |
| N#Cc1ccc(CN(CC(=O)NC2COC2)C(=O)CSc2ccccc2Cl)cc1 [Compound No. 1, 2-[[2-(2-Chlorophenyl)sulfanylacetyl]-[(4-cyanophenyl)methyl]amino]-N-(oxetan-3-yl)acetamide] |  |  | 1 to 16 µg/mL (≈ 2.33 to 37.2 µM) |  |
| NCc1ccc(CN(Cc2nnc(N)o2)C(=O)CSc2ccccc2Cl)cc1 [Compound No. 61, N-[[4-(Aminomethyl)phenyl]methyl]-N-[(5-amino-1,3,4-oxadiazol-2-yl)methyl]-2-(2-chlorophenyl)sulfanyl-acetamide] | > 64 µg/mL |  | 16 to 64 µg/mL (≈ 38.3 to 153 µM) | > 1000 nM |
| N#Cc1ccc(CN(CC(=O)NC2CCNCC2)C(=O)CSc2ccccc2Cl)cc1 [compound 4] | > 64 µg/mL |  | 16 to 64 µg/mL (≈ 35 to 140 µM) |  |
| N#Cc1ccc(CN(Cc2nnc(N)o2)C(=O)COc2ccccc2Cl)cn1 [compound 17] | > 64 µg/mL |  | 1 to 16 µg/mL (≈ 2.51 to 40.1 µM) |  |
| N#Cc1ccc(CN(C(=O)CSc2ccccc2Cl)C2(c3nnc(N)o3)CC2)cc1 [compound 22] | > 64 µg/mL |  | 1 to 16 µg/mL (≈ 2.27 to 36.4 µM) |  |
| N#Cc1ccc(CN(C(=O)CSc2ccccc2Cl)C2(c3nnc(N)o3)CC2)c(F)c1 [compound 23] | > 64 µg/mL |  | 1 to 16 µg/mL (≈ 2.18 to 34.9 µM) | 20 to 100 nM |
| N#Cc1ccc(CN(Cc2cc[nH]n2)C(=O)CSc2ccccc2Cl)cc1 [compound 49] | > 64 µg/mL |  | 1 to 16 µg/mL (≈ 2.52 to 40.3 µM) | 100 to 1000 nM |
| N#Cc1ccc(CN(Cc2cn[nH]c2)C(=O)CSc2ccccc2Cl)cc1 [compound 50] | > 64 µg/mL |  | 1 to 16 µg/mL (≈ 2.52 to 40.3 µM) | 100 to 1000 nM |
| CC(C)c1ccccc1OCC(=O)N(Cc1ccc(C#N)cc1)Cc1nnc(N)o1 [compound 53] | > 64 µg/mL |  | 1 to 16 µg/mL (≈ 2.47 to 39.5 µM) |  |
| N#Cc1ccc(CN(Cc2ccc3cn[nH]c3c2)C(=O)CSc2ccccc2Cl)cc1 [compound 71] | > 64 µg/mL |  |  | > 1000 nM |
| Cc1ncc(CN(Cc2ccc(C#N)cc2)C(=O)CSc2ccccc2Cl)[nH]1 [compound 75] | > 64 µg/mL |  | 1 to 16 µg/mL (≈ 2.43 to 38.9 µM) |  |
| [2H]C([2H])(Oc1cc(F)cc(F)c1C([2H])([2H])C([2H])([2H])[2H])C(=O)N(Cc1nnc(N)o1)Cc1ccc(C#N)cc1F [compound 77, N-[(5-amino-1,3,4-oxadiazol-2-yl)methyl]-N-[(4-cyano-2-fluoro-phenyl)methyl]-2,2-dideuterio-2-[3,5-difluoro-2-(1,1,2,2,2-pentadeuterioethyl)phenoxy]acetamide] | 1 to 16 µg/mL (≈ 2.21 to 35.4 µM) | 1 to 16 µg/mL (≈ 2.21 to 35.4 µM) |  |  |
| CCc1c(F)cc(F)cc1OCC(=O)N(Cc1nnc(N)o1)Cc1ccc(S(N)(=O)=O)cc1F [compound 79, N-[(5-Amino-1,3,4-oxadiazol-2-yl)methyl]-2-(2-ethyl-3,5-difluoro-phenoxy)-N-[(2-fluoro-4-sulfamoyl-phenyl)methyl]acetamide] | 1 to 16 µg/mL (≈ 2 to 32 µM) | 1 to 16 µg/mL (≈ 2 to 32 µM) |  |  |
| Nc1nnc(CN(Cc2ccc(S(N)(=O)=O)cc2F)C(=O)COc2cc(F)cc(F)c2C2CC2)o1 [compound 80] | 16 to 64 µg/mL (≈ 31.3 to 125 µM) | 1 to 16 µg/mL (≈ 1.96 to 31.3 µM) |  |  |
| N#Cc1ccc(CN(Cc2nnc(N)o2)C(=O)COc2cc(F)cc(F)c2C2CC2)c(F)c1 [compound 81] | 16 to 64 µg/mL (≈ 35 to 140 µM) | 1 to 16 µg/mL (≈ 2.19 to 35 µM) |  |  |
| [2H]C([2H])(Oc1cc(F)cc(F)c1C([2H])([2H])C([2H])([2H])[2H])C(=O)N(Cc1ccc(C#N)nc1)Cc1nnc(N)o1 [compound 82] | > 64 µg/mL | 16 to 64 µg/mL (≈ 36.7 to 147 µM) |  |  |

| SMILES | MIC [1] | MIC (P. aeruginosa LESB58) | MIC (P. aeruginosa PAO397) | IC50 [2] |
| --- | --- | --- | --- | --- |
| N#Cc1ccc(CN(Cc2nnc(N)o2)C(=O)COc2cc(F)cc(F)c2C2CC2)cn1 [compound 85] | > 64 µg/mL | 16 to 64 µg/mL (≈ 36.3 to 145 µM) |  |  |
| CCc1ccccc1SCC(=O)N(CC(=O)NC)Cc1ccc(-n2cncn2)cc1 [compound 90] | > 64 µg/mL |  |  | 100 to 1000 nM |
| CNC(=O)CN(Cc1ccc(-n2cncn2)cc1)C(=O)CSc1ccccc1Cl [compound 91] | > 64 µg/mL |  |  |  |
| C[C@@H](Sc1cc(F)cc(F)c1Cl)C(=O)N(Cc1nnc(N)o1)Cc1ccc(C#N)cc1F [compound 98] | > 64 µg/mL | > 64 µg/mL |  |  |
| N#Cc1ccc(CN(Cc2nnc(N)o2)C(=O)/C=C/c2ccccc2Cl)c(F)c1 [compound 99] | > 64 µg/mL | > 64 µg/mL |  |  |
| CCc1c(F)cc(F)cc1O[C@@H](C)C(=O)N(Cc1nnc(N)o1)Cc1ccc(C#N)cc1F [compound 101] | > 64 µg/mL | > 64 µg/mL |  |  |
| C[C@H](Sc1cc(F)cc(F)c1Cl)C(=O)N(Cc1nnc(N)o1)Cc1ccc(C#N)cc1F [compound 103] | > 64 µg/mL | > 64 µg/mL |  |  |
| [2H]C([2H])(Oc1cc(F)cc(F)c1C([2H])([2H])C([2H])([2H])[2H])C(=O)N(Cc1nnc(N)o1)Cc1ccc(S(N)(=O)=O)cc1F [compound 111, N-[(5-Amino-1,3,4-oxadiazol-2-yl)methyl]-2,2-dideuterio-2-[3,5-difluoro-2-(1,1,2,2,2-pentadeuterioethyl)phenoxy]-N-[(2-fluoro-4-sulfamoyl-phenyl)methyl]acetamide] | 16 to 64 µg/mL (≈ 31.6 to 126 µM) | 1 to 16 µg/mL (≈ 1.97 to 31.6 µM) |  |  |
| [2H]CC([2H])c1c(F)cc(F)cc1OCC(=O)N(Cc1nnc(N)o1)Cc1ccc(C#N)cc1F (stereo not shown) [compound 112] | 1 to 16 µg/mL (≈ 2.24 to 35.8 µM) | 1 to 16 µg/mL (≈ 2.24 to 35.8 µM) |  |  |
| [2H]C([2H])C([2H])([2H])c1ccccc1OCC(=O)N(Cc1nnc(N)o1)Cc1ccc(C#N)cc1F [compound 113] | > 64 µg/mL | 16 to 64 µg/mL (≈ 38.7 to 155 µM) |  |  |
| [2H]C([2H])(Oc1ccccc1C([2H])([2H])C([2H])([2H])[2H])C(=O)N(Cc1nnc(N)o1)Cc1ccc(C#N)cc1F [compound 114] | > 64 µg/mL | 16 to 64 µg/mL (≈ 38.4 to 154 µM) |  |  |
| N#Cc1ccc(CN(Cc2nnc(N)o2)C(=O)CSc2cc(CN)ccc2Cl)cn1 [compound 115] | > 64 µg/mL |  |  |  |
| C[C@H](Oc1ccccc1Cl)C(=O)N(Cc1ccc(C#N)cc1)Cc1nnc(N)o1 [compound 117] |  |  |  | > 1000 nM |
| N#Cc1ccc(CN(Cc2nnc(N)o2)C(=O)CSc2ccccc2CC(F)(F)F)c(F)c1 [compound 118] | > 64 µg/mL | > 64 µg/mL |  |  |
| NCCOc1ccc(Cl)c(SCC(=O)N(Cc2ccc(C(N)=O)c(C(=O)O)c2)Cc2nnc(N)o2)c1 [compound 119] |  |  |  | > 1000 nM |
| Nc1nnc(CN(Cc2ccc(S(N)(=O)=O)cc2)C(=O)COc2cc(F)cc(F)c2Cl)o1 [compound 120] | > 64 µg/mL | 16 to 64 µg/mL (≈ 32.8 to 131 µM) |  |  |
| N#Cc1ccc(CN(Cc2nnc(N)o2)C(=O)COc2ccc(F)cc2Cl)c(F)c1 [compound 121] | > 64 µg/mL | > 64 µg/mL |  |  |
